According to patent US12435050B2, “Benazolin-choline and its use in the agrochemical field” (BAYER AKTIENGESELLSCHAFT, priority 2019, dated 2025):
Entries after “also recorded” stand apart in the source; their conditions may differ. Like-named read-outs stand apart in the source and are kept apart here.

What was measured:
[1] = cited from earlier work
[2] = test system: Euphorbia heterophylla (EPHHL); test: Field weed control efficacy on EPHHL; format: in vivo; conditions: 200 g a.e./ha, EPHHL at BBCH 16-17 at application
Description: (§1) The different forms of benazolin were applied to weed plants in the greenhouse or in the field at the growth stage indicated for the different weed species hereinafter. The trials in the greenhouse were sprayed with an application volume of 300 L/ha with an automated track sprayer. The plots in the field were sprayed with an application volume of 140 L/ha with a hand held spray boom. Twenty-one days after application (21 DAA) or twenty-eight days after application (28 DAA) the different weed species were visually rated on a percentage scale in relation to the untreated control (100%=all plants dead; 50%=green plant biomass reduced by 50%, and 0%=no discernible difference=like control plot). The growth stages of the different weed species are indicated according to the BBCH monograph “Growth stages of mono- and dicotyledonous plants”, 2nd edition, 2001, ed. Uwe Meier, Federal Biological Research Centre for Agriculture and Forestry (Biologische Bundesanstalt für Land and Forstwirtschaft).

[3] = test system: Portulaca oleracea (POROL); test: Field weed control efficacy on POROL; format: in vivo; conditions: 200 g a.e./ha, POROL at BBCH 21-22 at application
Description: as §1

[4] = test system: Alternanthera tenella (ALRTE); test: Field weed control efficacy on ALRTE; format: in vivo; conditions: 200 g a.e./ha, ALRTE at BBCH 14-16 at application
Description: as §1

[5] = test system: Amaranthus retroflexus (AMARE); test: Greenhouse weed control efficacy on AMARE; format: in vivo; conditions: for % Control compared to untreated AMARE plants 21 DAA: 100 g a.e./ha, AMARE at BBCH 16-19 at application, visual rating 21 DAA; for % Control compared to untreated plants 21 DAA AMARE: BBCH 16-19, 21 DAA
Description: as §1

[6] = test system: Chenopodium album (CHEAL); test: Greenhouse weed control efficacy on CHEAL; format: in vivo; conditions: BBCH 15-24, 21 DAA
Description: as §1

[7] = Formulation compatibility: crystal formation after low temperature storage, mixing with dicamba (Clarity); format: physicochemical; conditions: benazolin salt SL10 mixed with Clarity, ratio 2:1 (a.e., w/w), 5° C. for 2 days
Experimental: (§2) Here simple mixing experiments were performed with soluble liquid SL 10 formulations of benazolin salts containing […] a.e. of benazolin (see General procedure 51 above) containing no surfactant and commercially available dicamba and glyphosate formulations.
(§3) Formulation compatibility (solubility, miscibility and storability) tests of different benazolin salt SL 10 formulations in mixture with commercial formulations of herbicides such as dicamba or glyphosate were performed.
In a first experiment, Clarity® (a commercial formulation of dicamba) was tank mixed with the respective benazolin salt SL 10 formulation in a 2:1 ratio by weight (w/w) based on the respective a.e. contents (in Table B5a referred to as “Ratio”) and the vial placed at 5° C. for 2 days.

[8] = Formulation compatibility: crystal formation after low temperature storage, mixing with glyphosate (Roundup Weathermax); format: physicochemical; conditions: benazolin salt SL10 mixed with Roundup Weathermax, ratio 4:1 (a.e., w/w), 5° C. for 2 days
Experimental: as §2, §3
In a second experiment, Roundup® Weathermax was tank mixed with the respective benazolin salt SL 10 formulation in a 4:1 ratio by weight (w/w) based on the respective a.e. contents (in Table B5b referred to as “Ratio”) and the vial placed at 5° C. for 2 days.

[9] = free acid, temperature not printed with the values (b59 refers to 25° C.)
[10] = benazolin salt 100 g a.e./ha in combination with 100 g a.e./ha dicamba (Clarity)
[11] = benazolin salt 100 g a.e./ha in combination with 200 g a.e./ha dicamba (Clarity)
[12] = benazolin salt 100 g a.e./ha in combination with 300 g a.e./ha dicamba (Clarity)

Structure (SMILES) | % Control compared to untreated EPHHL plants 28 DAA [2] | % Control compared to untreated POROL plants 28 DAA [3] | % Control compared to untreated ALRTE plants 21 DAA [4] | % Control compared to untreated AMARE plants 21 DAA [5] | % Control compared to untreated plants 21 DAA CHEAL [6, 10] | % Control compared to untreated plants 21 DAA CHEAL [6, 11] | % Control compared to untreated plants 21 DAA CHEAL [6, 12] | % Control compared to untreated plants 21 DAA AMARE [5, 10] | % Control compared to untreated plants 21 DAA AMARE [5, 11] | % Control compared to untreated plants 21 DAA AMARE [5, 12] | Microscopic evaluation (crystal formation) [8] | also measured
O=C(O)COc1ccc(Cl)cc1Cl [2,4-D, 2,4-dichlorophenoxy)acetic acid] |  |  |  |  |  |  |  |  |  |  |  | vapor pressure [1, 9]: about 0.019 mPa
O=C(O)Cn1c(=O)sc2cccc(Cl)c21 [Benazolin, 4-Chloro-2,3-dihydro-2-oxo-1,3-benzothiazol-3-ylacetic acid] | 5% | 88% | 40% | 25% |  |  |  |  |  |  |  | vapor pressure ([1]; at 20° C.): 0.0001 mPa
O=C(O)Cn1c(=O)sc2cccc(Cl)c21 [Benazolin-BAPMA] |  |  |  | 65% | 50% | 65% | 67% | 35% | 50% | 65% |  | 
O=C(O)Cn1c(=O)sc2cccc(Cl)c21 [Benazolin-DEA] |  |  |  |  |  |  |  |  |  |  |  | Microscopic evaluation (crystal formation) [7]: Crystal formation; Microscopic evaluation (shape of crystals) [7]: platelets + needles; Microscopic evaluation (size of crystals in μm) [7]: (20-40 μm),
O=C(O)Cn1c(=O)sc2cccc(Cl)c21 [Benazolin-DGA] | 8% | 50% | 44% | 40% | 25% | 65% | 50% | 35% | 40% | 55% | Crystal formation | Microscopic evaluation (shape of crystals) [8]: needles; Microscopic evaluation (size of crystals in μm) [8]: (60-100 μm),
O=C([O-])Cn1c(=O)sc2cccc(Cl)c21.[K+] [Benazolin-K] |  |  |  |  |  |  |  |  |  |  | Crystal formation | Microscopic evaluation (shape of crystals) [8]: platelets + needles; Microscopic evaluation (size of crystals in μm) [8]: (20-50 μm),
O=C(O)Cn1c(=O)sc2cccc(Cl)c21 [Benazolin-choline] | 13% | 100% | 48% | 70% | 70% | 80% | 85% | 50% | 80% | 75% | no crystal formation was observed; also recorded: No crystals | Microscopic evaluation (crystal formation) [7]: no crystal formation was observed; also recorded: No crystals
CCOC(=O)Cn1c(=O)sc2cccc(Cl)c21 [Benazolin-ethyl, Ethyl (4-chloro-2-oxo-1,3-benzothiazol-3(2H)-yl)acetate] | 8% | 88% | 40% | 35% |  |  |  |  |  |  |  | 
COc1c(Cl)ccc(Cl)c1C(=O)O [Dicamba, 3,6-dichloro-2-methoxybenzoic acid] |  |  |  |  |  |  |  |  |  |  |  | vapor pressure [1, 9]: 4.5 mPa
